A word on the Tmax: it is the time from dosing to the highest level. A word on the Cmax: it is the maximum level reached in the sampled fluid or tissue. By Emax is commonly meant the maximal effect, on the per cent scale that the assay sets.

This is an account of results in PMC11736144, “A sleepy cannabis constituent: cannabinol and its active metabolite influence sleep architecture in rats” (Neuropsychopharmacology, 2024).

Like-named read-outs stand apart in the source and are kept apart here.

Data set [1] can be described thus: Pharmacokinetic analysis of CBN and metabolites in rat plasma and brain (LC-MS/MS). It is filed as in vivo. Particulars: for Kp: brain and plasma, 10 mg/kg, read-out: Brain/plasma ratio. As to the method:
Rats received 10 mg/kg CBN IP at approximately ZT13. Rats were then anesthetized with isoflurane at selected ZT points (13, 13.5, 14, 15, 17, 19, and 21) and blood was collected by terminal cardiac puncture. Brains were harvested, snap frozen on dry ice and plasma was isolated via centrifugation at 9000 × g for 10 min at 4 °C. All tissues were stored at −80 °C until analysis. CBN and metabolite concentrations in plasma and brain samples were assayed by liquid chromatography-tandem mass spectrometry (LC–MS/MS) using a using a Shimadzu Nexera LC-30AD UHPLC system coupled to a Shimadzu SPD-20AV photodiode array detector and a Shimadzu LC–MS-8040 triple-quadrupole mass spectrometer, equipped with an electrospray ionization (ESI) source (Shimadzu Corp.; Kyoto, Japan) as described previously.
LC-MS/MS. Plasma samples (50 µL) were spiked with internal standard (12.5 µg/mL d3-THC, 5 µL) and protein precipitation was achieved by vortex-mixing with a 3x volume of ice-cold acetonitrile. The organic layer was isolated by centrifugation (6000 g for 10 min, 4 °C) and evaporated to dryness using N2 gas. Samples were reconstituted in acetonitrile (90 µL) and 0.1% ammonium formate in water (300 µL) for supported-liquid extraction (SLE) using dichloromethane and methyl tert-butyl ether Biotage Isolute SLE+ columns (Uppsala, Sweden) as previously described. Brain samples were prepared as described for plasma samples with minor modifications. Briefly, each half brain was homogenised in methanol: water (2:1, 10x, w/v) and spiked with d3-THC as an internal standard. Homogenates were centrifuged (20,000 g for 30 min, 4 °C). Supernatants were then extracted and prepared as described above.
Quantification of CBN, 11-OH-CBN and 11-COOH-CBN in plasma and brain samples was performed by comparing experimental samples to eight-point standard curves prepared with known amounts of cannabinoid. Plasma and brain concentrations at each time point were averaged and pharmacokinetic parameters were calculated by noncompartmental analysis. Elimination rate constants were determined by linear regression of the terminal component of the concentration-time curve using GraphPad Prism 8.2 (La Jolla, USA). The log-linear trapezoidal method was used to calculate the area under concentration-time curve using equations described previously.

Data set [2] concerns the target T1, human CB2 receptors (Homo sapiens, UniProt P34972).
T1 construct: expressed in transfected cells; host or cells: mouse AtT20 FlpIn cells
Briefly: Membrane potential (GIRK) assay in AtT20 cells, human CB2. Particulars: at 30 µM; normalized to 1 µM CP 55,940. It counts as cell-based.

For data set [3], the system named is rat CB1 receptors. Details: method as in PMID 9379442. Particulars: adenylyl cyclase inhibition; higher potency than CBN; efficacy not reported; cited from earlier work.
Data set [4] concerns male Long-Evans rats. As to the kind of experiment: Acute polysomnography (wireless EEG/EMG telemetry) in rats. Particulars: for NREM delta power / REM theta power: EEG power spectra; for NREM delta power: overall effect; for NREM delta power / REM theta power / body temperature / locomotor activity counts: acute IP; for NREM delta power / REM theta power / total sleep time / % NREM sleep / % REM sleep / % active wake / % quiet wake / NREM sleep onset latency / REM bout duration / REM bout number / REM sleep onset latency / cumulative total sleep time / mean duration of NREM bouts per hour / number of NREM bouts per hour / total wake time / body temperature / locomotor activity counts: zolpidem 10 mg/kg; for total sleep time: acute IP at ZT13 (dark phase) vs vehicle, n = 8; for body temperature: subcutaneous; for body temperature / locomotor activity counts: telemetry.

Data set [5] concerns the target human CB1 receptors (Homo sapiens, UniProt P21554). As to the kind of experiment: cell-based. It is filed as cell-based. Also noted: expressed in transfected cells; host or cells: mouse AtT20 FlpIn cells.
The test system of data set [6] is mice. Particulars: cited from earlier work; for NREM: mice.
For data set [7], the system named is rats. Details: method as in PMID 28934522, PMID 37507813. Particulars: cited from earlier work.
For data set [8], the system named is rabbits. Details: method as in PMID 4355439. Particulars: cited from earlier work.
On the set-up of data set [9]: method as in PMID 4337346. Particulars: early human study; cited from earlier work.
[10] abbreviates: ip, rat plasma after CBN 10 mg/kg, post-dose, read-out: plasma Tmax (converted).
Setting [11] is: rat brain after CBN 10 mg/kg IP, analyte as labelled.
The mark [12] stands for this setting: rat brain after CBN 10 mg/kg IP, analyte as labelled, n = 4.
Where [13] appears, read: rat plasma after CBN 10 mg/kg IP, analyte as labelled.
The mark [14] stands for this setting: rat plasma after CBN 10 mg/kg IP, analyte as labelled, n = 4.
Setting [15] is: rat, ip, rat, after CBN 10 mg/kg IP, analyte as labelled.
Setting [16] is: CBN 10, 30, 100 mg/kg, 11-OH-CBN 1, 3, 10 mg/kg.
Setting [17] is: acute IP at ZT13 vs vehicle, CBN 10, 30, 100 mg/kg, 11-OH-CBN 1, 3, 10 mg/kg.

human CB1 receptors, sequence (P21554 whole entry): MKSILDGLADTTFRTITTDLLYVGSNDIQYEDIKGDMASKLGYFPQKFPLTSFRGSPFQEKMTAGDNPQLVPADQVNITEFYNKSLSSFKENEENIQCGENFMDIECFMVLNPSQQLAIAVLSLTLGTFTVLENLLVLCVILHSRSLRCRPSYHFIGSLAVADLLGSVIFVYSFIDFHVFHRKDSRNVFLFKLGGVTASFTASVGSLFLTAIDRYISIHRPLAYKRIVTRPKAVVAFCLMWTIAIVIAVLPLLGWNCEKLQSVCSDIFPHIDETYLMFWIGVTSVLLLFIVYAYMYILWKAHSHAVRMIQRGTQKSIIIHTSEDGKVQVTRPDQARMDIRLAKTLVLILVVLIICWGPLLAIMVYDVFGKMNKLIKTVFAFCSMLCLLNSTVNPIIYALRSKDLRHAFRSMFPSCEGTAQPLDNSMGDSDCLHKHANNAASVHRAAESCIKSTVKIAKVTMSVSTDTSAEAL
T1 sequence (P34972 whole entry): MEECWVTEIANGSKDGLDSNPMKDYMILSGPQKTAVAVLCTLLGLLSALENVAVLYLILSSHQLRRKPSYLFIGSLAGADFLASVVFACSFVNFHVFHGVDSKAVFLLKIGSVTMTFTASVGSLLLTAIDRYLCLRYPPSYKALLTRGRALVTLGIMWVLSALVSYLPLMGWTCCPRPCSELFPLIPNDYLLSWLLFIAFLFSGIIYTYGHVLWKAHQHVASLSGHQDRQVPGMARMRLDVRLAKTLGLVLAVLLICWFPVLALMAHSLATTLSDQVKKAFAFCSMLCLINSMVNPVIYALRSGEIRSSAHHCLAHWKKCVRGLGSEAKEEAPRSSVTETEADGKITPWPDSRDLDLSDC

For the molecule `CCCCCc1cc(O)c2c(c1)OC(C)(C)c1ccc(CO)cc1-2` [11-OH-CBN, 11-hydroxy-cannabinol], in [1] (ip, rat brain after CBN 10 mg/kg, read-out: brain Tmax), the Tmax was determined as 2 h. Also, in [1] (setting [10]), the Tmax was 1 h. Also, the half-life in data set [1] (ip, rat, after CBN 10 mg/kg, similar in plasma and brain, read-out: half-life in plasma and brain (converted)) is ~2 h. In addition, the “Brain AUC∞” value in data set [1] (setting [11]) is recorded as 1539 pg hour/mg brain. Further, in data set [1] (setting [12]), the “Brain Cmax” value is listed as 419 ± 37 pg/mg brain. For the same molecule, in [1] (rat brain after CBN 10 mg/kg IP, analyte as labelled, read-out: Brain t½ (converted)), the half-life was 2.08 h. In addition, the “Brain Cmax” value in [1] (rat brain following systemic administration of CBN) is recorded as 1.3 µM. The “Plasma AUC∞” value in [1] (setting [13]) turned out to be 493 ng·h/mL. Further, the Cmax in data set [1] (setting [14]) was 170 ± 18 ng/mL. Further, the half-life in data set [1] (rat plasma after CBN 10 mg/kg IP, analyte as labelled, read-out: Plasma t½ (converted)) was 2.18 h. Further, the Brain/plasma ratio in data set [1] (rat, after CBN 10 mg/kg IP, analyte as labelled) was ~3. The Kp in data set [1] (setting [15]) was 3.12. Moreover, the “activity at CB2” value in data set [2] is 50 ± 6%. Further, the “potency at rat CB1 receptors” value in data set [3] is listed as “low nM range”. Also, in data set [4] (setting [16]), the NREM delta power entry is on record as “significantly increased”, the REM theta power entry was “significantly increased”, the total sleep time result is listed as “did not significantly increase” and the body temperature entry is given as “decreased”. For the same molecule, the locomotor activity counts entry in data set [4] (setting [16]) is listed as “biphasic effect”. In addition, the “delayed onset of action on % NREM sleep, time post-dosing” value in data set [4] (acute IP at ZT13) lay within 3 to 4 h. Besides, in [4] (setting [17]), the “cumulative NREM time” value was “biphasic effect”, the “cumulative REM time” value is listed as “suppressed I cumulative REM at the highest dose”, the “% NREM sleep” value is recorded as “increased” and the “% REM sleep” value is “biphasically affected”. For the same molecule, in data set [4] (setting [17]), the “% active wake” value is recorded as “decreased”, the “% quiet wake” value is listed as “decreased”, the “NREM sleep onset latency” value is recorded as “increased” and the REM bout duration result is given as “did not affect”. In data set [4] (setting [17]), the REM bout number entry is “affected”, the “REM sleep onset latency” value was “increased”, the “cumulative total sleep time” value is “biphasically influenced” and the “mean duration of NREM bouts per hour” value is reported as “significantly decreased”. Moreover, in [4] (setting [17]), the “number of NREM bouts per hour” value is recorded as “increased” and the total wake time entry is given as “did not significantly reduce”. Besides, the EC50 in [5] (CB1, membrane potential assay, AtT20 cells, read-out: pEC50 (converted)) was 1000 nM. Further, in data set [5] (CB1, normalized to 1 µM CP 55,940, AtT20 cells, read-out: maximal response (Emax)), the Emax came to 75 ± 3%. Also, in data set [5] (membrane potential assay), the “activity at CB1 receptors (in words)” value is “modestly potent partial agonist”.
Turning to `CCCCCc1cc(O)c2c(c1)OC(C)(C)c1ccc(C(=O)O)cc1-2` [11-COOH-CBN, 11-carboxy-cannabinol], the half-life in data set [1] (ip, rat brain after CBN 10 mg/kg, read-out: brain T1/2 (converted)) was 3.48 h. Also, the time of peak concentration (Tmax) in [1] (setting [10]) was 1 h. In data set [1] (ip, rat plasma after CBN 10 mg/kg, read-out: t1/2 plasma (converted)), the half-life was 4.52 h. For the same molecule, in data set [1] (setting [11]), the “Brain AUC∞” value worked out at 137 pg hour/mg brain and the “Brain t½” value came to 3.48 h. Besides, the “Brain Cmax” value in data set [1] (setting [12]) is reported as 28 ± 5 pg/mg brain. In [1] (rat brain after CBN 10 mg/kg IP, analyte as labelled, read-out: Brain tmax), the Tmax was found to be 2 h. In data set [1] (setting [13]), the “Plasma AUC∞” value amounted to 1181 ng·h/mL and the “Plasma t½” value is 4.52 h. Besides, the Cmax in data set [1] (setting [14]) worked out at 169 ± 38 ng/mL. Further, the Kp in [1] (setting [15]) turned out to be 0.12. The “activity at CB2” value in data set [2] was 41 ± 2%. Further, the “response at CB1” value in data set [5] (30 µM (highest concentration tested), normalized to 1 µM CP 55,940) is given as 43 ± 7%. Also, the “activity at CB1 receptors (in words)” value in data set [5] (membrane potential assay) is “minimal activity”.
For the molecule `O=S(=O)(F)CCCCCc1ccc(O)cc1` [AM3506], in data set [6], the REM entry is “suppressed” and the NREM result is “increased”.
With `CCCCCc1cc(O)c2c(c1)OC(C)(C)[C@@H]1CCC(C)=C[C@@H]21` [Δ^9-THC, Δ^9-tetrahydrocannabinol], the REM entry in data set [7] is given as “suppressed”. Further, the “NREM and REM sleep” value is “early-phase NREM and REM suppression, followed by a later phase increase in NREM sleep” in [8]; “tended to increase NREM but suppress REM sleep” in data set [9].
In the case of `CCCCCCC(C)(C)c1ccc([C@H]2CCC[C@@H](O)C2)c(O)c1` [CP 47,497], in [6], the NREM result is reported as “increased”.
As to `Cc1ccc(-c2nc3ccc(C)cn3c2CC(=O)N(C)C)cc1` [zolpidem, reference compound], the “NREM delta power at specific time points” value in data set [4] (CBN 30 mg/kg and 100 mg/kg at ZT17 and 18, zolpidem 10 mg/kg at ZT13 and 14) is “increase”. Moreover, in data set [4] (setting [16]), the NREM delta power entry is listed as “Neither CBN nor zolpidem had robust effects”, the REM theta power entry was “increased”, the total sleep time entry was “increased” and the body temperature result was “did not robustly effect”. Besides, the locomotor activity counts result in [4] (setting [16]) is listed as “decreased”. In data set [4] (setting [17]), the “% NREM sleep” value is reported as “increased”, the “% REM sleep” value is on record as “did not affect”, the “% active wake” value is on record as “decreased” and the “% quiet wake” value is “did not affect”. In [4] (setting [17]), the “NREM sleep onset latency” value is given as “decreased”, the REM bout duration entry is given as “did not affect”, the REM bout number result is listed as “did not affect” and the “REM sleep onset latency” value is reported as “did not affect”. In addition, in data set [4] (setting [17]), the “cumulative total sleep time” value is recorded as “increased”, the “mean duration of NREM bouts per hour” value is “increased”, the “number of NREM bouts per hour” value is on record as “unaffected” and the total wake time entry was “decreased”.
In the case of `O=C(Oc1ccc([N+](=O)[O-])cc1)N1CCC(C(O)(c2ccc3c(c2)OCO3)c2ccc3c(c2)OCO3)CC1` [JZL184], in data set [6], the REM entry is given as “suppressed” and the NREM entry was “increased”.
